Laboratory results as given in patent US6531471B2, “Morpholinone and morpholine derivatives and uses thereof” (Synaptic Pharmaceutical Corporation, priority 1998, dated 2003).
Where a name gives a salt, the structure may show the parent alone.

What was measured:
human α1d receptor = target: T1, human α1d receptor (Homo sapiens, UniProt P25100); experiment: Radioligand binding assay at cloned human α1d adrenergic receptor; conditions: [3H]prazosin 0.5 nM, membrane preparations of transfected LM(tk−) cells, read-out: hα1d Ki
T1 construct: host or cells: LM(tk−) cells, membrane preparation
T1 sequence (P25100 1-572): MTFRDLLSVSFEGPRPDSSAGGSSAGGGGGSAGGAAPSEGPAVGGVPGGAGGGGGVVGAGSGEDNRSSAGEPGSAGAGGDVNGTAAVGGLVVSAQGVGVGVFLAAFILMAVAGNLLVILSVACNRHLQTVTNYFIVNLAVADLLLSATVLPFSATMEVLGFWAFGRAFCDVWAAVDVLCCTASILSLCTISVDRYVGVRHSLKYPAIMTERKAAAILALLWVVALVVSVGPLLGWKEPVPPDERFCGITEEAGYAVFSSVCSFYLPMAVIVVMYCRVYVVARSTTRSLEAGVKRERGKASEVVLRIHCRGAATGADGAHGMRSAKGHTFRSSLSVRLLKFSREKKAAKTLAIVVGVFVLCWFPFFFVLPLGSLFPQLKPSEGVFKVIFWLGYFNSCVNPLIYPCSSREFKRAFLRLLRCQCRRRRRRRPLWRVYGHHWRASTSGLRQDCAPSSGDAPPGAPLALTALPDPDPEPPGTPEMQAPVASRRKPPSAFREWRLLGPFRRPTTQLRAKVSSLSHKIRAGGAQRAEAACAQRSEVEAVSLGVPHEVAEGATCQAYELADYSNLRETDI
Method: (§1) These cell lines were prepared by transfecting the cloned cDNA or cloned genomic DNA or constructs containing both genomic DNA and cDNA encoding the human α-adrenergic receptors as follows:
The cells were grown, in a controlled environment (37° C., 5% CO2), as monolayers in Dulbecco's modified Eagle's Medium (GIBCO, Grand Island, N.Y.) containing 25 mM glucose and supplemented with 10% bovine calf serum, 100 units/ml penicillin g, and 100 μg/ml streptomycin sulfate.
(§2) Radioligand Binding Assays for α1 receptors: Transfected cells from culture flasks were scraped into 5 ml of 5 mM Tris-HCl, 5 mM EDTA, pH 7.5, and lysed by sonication. The cell lysates were centrifuged at 1000 rpm for 5 min at 4° C., and the supernatant was centrifuged at 30,000×g for 20 min at 4° C. The pellet was suspended in 50 mM Tris-HCl, 1 mM MgCl2, and 0.1% ascorbic acid at pH 7.5. Binding of the α1 antagonist [^3H]prazosin (0.5 nM, specific activity 76.2 Ci/mmol) to membrane preparations of LM(tk−) cells was done in a final volume of 0.25 ml and incubated at 37° C. for 20 min. Nonspecific binding was determined in the presence of […] phentolamine. The reaction was stopped by filtration through GF/B filters using a cell harvester.

human α1b receptor = target: T2, human α1b receptor (Homo sapiens, UniProt P35368); experiment: Radioligand binding assay at cloned human α1b adrenergic receptor; conditions: [3H]prazosin 0.5 nM, membrane preparations of transfected LM(tk−) cells, read-out: hα1b Ki
T2 construct: host or cells: LM(tk−) cells, membrane preparation
T2 sequence (P35368 1-520): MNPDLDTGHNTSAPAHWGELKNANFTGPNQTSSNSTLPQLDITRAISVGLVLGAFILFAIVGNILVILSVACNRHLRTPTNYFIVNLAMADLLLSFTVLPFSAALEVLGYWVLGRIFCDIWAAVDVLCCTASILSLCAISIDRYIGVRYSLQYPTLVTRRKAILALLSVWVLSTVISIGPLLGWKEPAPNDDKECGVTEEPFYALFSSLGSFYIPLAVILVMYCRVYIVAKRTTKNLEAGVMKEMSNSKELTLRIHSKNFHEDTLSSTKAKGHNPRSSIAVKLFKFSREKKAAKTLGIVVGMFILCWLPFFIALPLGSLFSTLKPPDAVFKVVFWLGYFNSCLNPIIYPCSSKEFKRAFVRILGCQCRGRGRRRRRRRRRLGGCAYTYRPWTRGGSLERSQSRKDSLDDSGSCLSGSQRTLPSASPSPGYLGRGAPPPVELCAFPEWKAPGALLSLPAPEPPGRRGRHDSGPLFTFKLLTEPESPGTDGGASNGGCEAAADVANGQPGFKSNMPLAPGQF
Method: as §1
The construct involved ligating the full-length containing EcoRI brainstem cDNA fragment from λ ZapII into the expression vector. Stable cell lines were selected as described above.
as §2

human α1a receptor = target: T3, human α1a receptor (Homo sapiens, UniProt P35348); experiment: Radioligand binding assay at cloned human α1a adrenergic receptor; conditions: [3H]prazosin 0.5 nM, membrane preparations of transfected LM(tk−) cells, read-out: hα1a Ki
T3 construct: host or cells: LM(tk−) cells, membrane preparation
T3 sequence (P35348 1-466): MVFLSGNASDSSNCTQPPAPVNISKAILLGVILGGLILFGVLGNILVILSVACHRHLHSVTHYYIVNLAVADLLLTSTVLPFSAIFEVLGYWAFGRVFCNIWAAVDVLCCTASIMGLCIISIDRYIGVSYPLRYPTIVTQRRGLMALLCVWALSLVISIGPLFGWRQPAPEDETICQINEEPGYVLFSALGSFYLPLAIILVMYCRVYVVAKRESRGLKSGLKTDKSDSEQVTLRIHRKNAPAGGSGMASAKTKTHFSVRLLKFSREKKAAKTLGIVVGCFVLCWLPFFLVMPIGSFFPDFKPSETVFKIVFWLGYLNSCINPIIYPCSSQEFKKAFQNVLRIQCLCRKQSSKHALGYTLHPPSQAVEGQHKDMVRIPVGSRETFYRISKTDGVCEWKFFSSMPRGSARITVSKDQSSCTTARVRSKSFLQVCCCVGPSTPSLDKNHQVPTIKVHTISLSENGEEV
Method: as §1
The construct involved ligating three partial overlapping fragments: a 5′ 0.6 kb HincII genomic clone, a central 1.8 EcoRI hippocampal cDNA clone, and a 3′ 0.6Kb PstI genomic clone. The hippocampal cDNA fragment overlaps with the 5′ and 3′ genomic clones so that the HincII and PstI sites at the 5′ and 3′ ends of the cDNA clone, respectively, were utilized for ligation. This full-length clone was cloned into the KpnI site of the expression vector, using the 5′ and 3′ KpnI sites of the fragment, derived from vector (i.e., pBluescript) and 3′-untranslated sequences, respectively. Stable cell lines were selected as described above.
as §2

Row | SMILES | Ki (human α1d receptor) | Ki (human α1b receptor) | Ki (human α1a receptor) | melting point
1 | CC1(C)OCC(=O)N(C(=O)NCCCN2CCC(c3ccccn3)CC2)C1c1ccc(F)c(F)c1 (centres unmarked) [Compound 17, N-4-[3-{4-(2-pyridyl}piperidino)propyl]-3-(3,4-difluorophenyl)-2,2-dimethyl-5-oxo-4-morpholinecarboxamide hydrochloride] | 580 nM | 464 nM | 3.8 nM | –
2 | N#CC1(c2ccccc2)CCC(NCCNC(=O)N2C(=O)COCC2c2ccc(F)c(F)c2)CC1 (centres unmarked) [Compound 7] | 204 nM | 246 nM | 12.6 nM | –
3 | COc1ccc(F)cc1C1(c2ccccc2)CCN(CCCNC(=O)N2C(=O)COCC2c2ccc(F)c(F)c2)CC1 (single isomer, unassigned; (+)) (as salt: HCl) [Compound 1, (+)-3-(3,4-Difluorophenyl)-5-oxo-morpholine-4-carboxylic acid-{3-[4-(5-fluoro-2-methoxyphenyl)-4-phenyl-piperidin-1-yl}-propyl}-amide] | – | – | – | 110 to 113 °C
4 | NC(=O)c1ccccc1N1CCN(CCCNC(=O)N2C(=O)COCC2c2ccc(F)c(F)c2)CC1 (centres unmarked) [Compound 4, 3-(3,4-Difluoro-phenyl)-5-oxo-morpholine-4-carboxylic acid-{3-[4-(2-carboxamido)-phenyl-piperiazin-1-yl]-propyl}-amide] | 3160 nM | 3630 nM | 32 nM | –
5 | COc1ccc(F)cc1C1(c2ccccc2)CCN(CCCNC(=O)N2C(=O)COCC2c2ccc(F)c(F)c2)CC1 (single isomer, unassigned; (+)) [Compound 1, (+)-3-(3,4-Difluorophenyl)-5-oxo-morpholine-4-carboxylic acid-{3-[4-(5-fluoro-2-methoxyphenyl)-4-phenyl-piperidin-1-yl}-propyl}-amide] | 307 nM | 244 nM | 1.6 nM | –
6 | CC1OCC(=O)N(C(=O)NCCCN2CCC(C#N)(c3ccccc3)CC2)C1c1ccc(F)c(F)c1 (single isomer, unassigned; (+)) [Compound 14] | 4200 nM | 1460 nM | 2.6 nM | 191 to 194 °C
